Experimental data taken from patent US20120152149A1, “USE OF 1,3-DIOLS AS BIOCIDES” (BASF SE, priority 2009, published 2012).
Like-named read-outs stand apart in the source and are kept apart here.

Key:
Format in all cases: cell-based
C. albicans ATCC 10231 = assay: Preservation stress test, example formulation 2 (roll-on deodorant formulation); details: 1% active substance
Method: (§1) Preservation stress tests (PSTs) were carried out in order to determine the preserving activity of the diols. In the preservation stress test, this is simulated through artificial loadings with microorganisms. These can either be inoculated as mixed population or individually in mixtures independent of one another. The inoculated product samples are incubated under defined conditions and, after defined times, samples are taken in order to determine the germ loading. In the case of adequate preservation, the number of microorganisms should, depending on the type, either decrease or remain constant in order to satisfy the requirements specified, e.g. in Ph. Eur. 6.0. To investigate the preserving effect of the diols, application-typical amounts of the diols were incorporated into example formulations. […] [table] These example formulations were used to prepare various mixtures which each comprised 1% active substance or comprised water instead of the active substance as placebo mixtures. These mixtures were in each case inoculated with the test germs such that a germ loading of 10^5-10^6 CFU/g was present in the test mixture. The bacteria were either used individually for the inoculation or as a mixed culture. To determine the starting germ count, immediately after inoculation, an aliquot was taken, diluted in dilution medium (phosphate buffer, 0.07 molar pH 7.4 (+/−0.2), with 1% Tween 80+0.3% soya lecithin), and the surviving germ count was determined in the dilution stages 10^−1 to 10^−3. The inoculated product samples then incubated for a total of 28 d at 20-25° C. After 2 d, 7 d, 14 d and after 28 d, aliquots were taken and diluted in dilution medium (phosphate buffer, 0.07 molar pH 7.4 (+/−0.2), with 1% Tween 80+0.3% soya lecithin). The surviving germ counts were determined in the dilution stages 10^−1 to 10^−4. The reference point taken for determining the reduction in germ count was the respective initial value of the sample. The results were given as logarithmic reductions.

A. niger ATCC 16404 = assay: as above; details: 1% active substance
Method: as §1

S. aureus ATCC 6538 = assay: as above; details: 1% active substance
Method: as §1

P. aeruginosa ATCC 15442 = assay: as above; details: 1% active substance
Method: as §1

E. coli ATCC 10536 = assay: as above; details: 1% active substance
Method: as §1

[1] = system: series of tested microorganisms (bacteria and fungi); assay: Microstatic activity, highest MIC from the series of tested microorganisms; details: highest measured MIC from the series of tested microorganisms
Method: The following microorganisms were used;to test the biocidal effect against various bacteria and fungi: In each case, the MIC (Minimum Inhibitory Concentration) value was determined. This value indicates the minimum concentration above which the growth of the microorganisms was visibly hindered compared to the corresponding sample without addition of the diol. The MIC value stated is a range between the next higher concentration of a positive test and the same and/or lower concentration of a first negative test. In the last line of each of the tables below, a “maximum” value is listed. This value indicates the highest measured MIC value in each case from the series of tested microorganisms.

A. niger IMI 149007 = assay: Microstatic activity, MIC in tryptone soy broth; details: Aspergillus niger, IMI149007, 120 h, 25° C., 5 days
Method: (§2) For this, in each case a 40 percent strength by weight solution of a diol in propylene glycol was prepared at 60° C. This solution was diluted with a double-strength soy solution (double-strength tryptone soy broth) as nutrient medium in the volume ratio 1:1. Further dilution with soy solution produced solutions with the following concentrations: 400 000 ppm (40%), 200 000 ppm (20%), 100 000 ppm (10%), 50 000 ppm (5%), 25 000 ppm (2.5%), 12 500 ppm (1.25%), 6250 ppm (0.625%), 3125 ppm (0.3125%). Pure soy solution was used as negative control. The positive control used was a solution of 5 ml of soy solution which has been treated with 0.1 ml of the respective microorganism. The test solutions consisted of 5 ml of the above-described soy solutions of the diols in the particular concentration which have been mixed with 0.1 ml of the respective microorganism. The samples and controls were incubated in the case of the bacteria at 30° C. for 48 hours, and in the case of fungi over 5 days at 25° C. In each case, the MIC (Minimum Inhibitory Concentration) value was determined. This value indicates the minimum concentration above which the growth of the microorganisms was visibly hindered compared to the corresponding sample without addition of the diol. […] For example, this was evident from the occurrence of clouding or visible growth of the microorganism. […] The MIC value stated is a range between the next higher concentration of a positive test and the same and/or lower concentration of a first negative test.

E. coli NCIMB 8545 = assay: Microstatic activity, MIC in tryptone soy broth; details: Escherichia coli, NCIMB8545, 30° C., 48 hours
Method: as §2

[2] = system: P. aeruginosa NCIMB 10421; assay: Microstatic activity, MIC in tryptone soy broth; details: Pseudomonas aeruginosa, NCIMB10421, 30° C., 48 hours
Method: as §2

S. aureus NCIMB 9578 = assay: Microstatic activity, MIC in tryptone soy broth; details: Staphylococcus aureus, NCIMB9578, 30° C., 48 hours
Method: as §2

C. albicans NCPF 3179 = assay: Microstatic activity, MIC in tryptone soy broth; details: Candida albicans, NCPF3179, 120 h, 25° C., 5 days
Method: as §2

P. vulgaris NCIMB 4175 = assay: Microstatic activity, MIC in tryptone soy broth; details: Proteus vulgaris, NCIMB4175, 30° C., 48 hours
Method: as §2

[3] = lower limit, read-out: Maximum MIC value (ppm of diol), from
[4] = upper limit, read-out: Maximum MIC value (ppm of diol), to
[5] = lower limit of MIC range, read-out: MIC value (ppm of diol), from
[6] = upper limit of MIC range, read-out: MIC value (ppm of diol), to

Compound	Microbicidal activity given as logarithmic reduction in germ count (C. albicans ATCC 10231; 48 h)	Microbicidal activity given as logarithmic reduction in germ count (C. albicans ATCC 10231; 7 d)	Microbicidal activity given as logarithmic reduction in germ count (C. albicans ATCC 10231; 14 d)	Microbicidal activity given as logarithmic reduction in germ count (A. niger ATCC 16404; 48 h)	Microbicidal activity given as logarithmic reduction in germ count (A. niger ATCC 16404; 7 d)	Microbicidal activity given as logarithmic reduction in germ count (A. niger ATCC 16404; 14 d)	Microbicidal activity given as logarithmic reduction in germ count (S. aureus ATCC 6538; 48 h)	Microbicidal activity given as logarithmic reduction in germ count (S. aureus ATCC 6538; 7 d)	Microbicidal activity given as logarithmic reduction in germ count (S. aureus ATCC 6538; 14 d)	Microbicidal activity given as logarithmic reduction in germ count (S. aureus ATCC 6538; 28 d)	Microbicidal activity given as logarithmic reduction in germ count (P. aeruginosa ATCC 15442; 48 h)	Microbicidal activity given as logarithmic reduction in germ count (P. aeruginosa ATCC 15442; 7 d)	Microbicidal activity given as logarithmic reduction in germ count (P. aeruginosa ATCC 15442; 14 d)	Microbicidal activity given as logarithmic reduction in germ count (P. aeruginosa ATCC 15442; 28 d)	Microbicidal activity given as logarithmic reduction in germ count (E. coli ATCC 10536; 48 h)	Microbicidal activity given as logarithmic reduction in germ count (E. coli ATCC 10536; 7 d)	Microbicidal activity given as logarithmic reduction in germ count (E. coli ATCC 10536; 14 d)	Microbicidal activity given as logarithmic reduction in germ count (E. coli ATCC 10536; 28 d)	MIC [1, 3]	MIC [1, 4]	also measured
CC(C)C(C)(CO)CO [IMPD, 2-isopropyl-2-methylpropane-1,3-diol]	0 log. Red.	0 log. Red.	0 log. Red.	0 log. Red.	0 log. Red.	0 log. Red.	≧3 log. Red.	5 log. Red.	5 log. Red.	5 log. Red.	1 log. Red.	≧3 log. Red.	5 log. Red.	5 log. Red.	3 log. Red.	5 log. Red.	5 log. Red.	5 log. Red.	> 25 mg/mL	≤ 50 mg/mL	MIC (A. niger IMI 149007; [5]): > 25 mg/mL; MIC (A. niger IMI 149007; [6]): ≤ 50 mg/mL; MIC (E. coli NCIMB 8545; [5]): > 6.25 mg/mL; MIC (E. coli NCIMB 8545; [6]): ≤ 12.5 mg/mL; MIC [2, 5]: > 12.5 mg/mL; MIC [2, 6]: ≤ 25 mg/mL; MIC (S. aureus NCIMB 9578; [5]): > 12.5 mg/mL; MIC (S. aureus NCIMB 9578; [6]): ≤ 25 mg/mL; MIC (C. albicans NCPF 3179; [5]): > 25 mg/mL; MIC (C. albicans NCPF 3179; [6]): ≤ 50 mg/mL; MIC (P. vulgaris NCIMB 4175; [5]): > 6.25 mg/mL; MIC (P. vulgaris NCIMB 4175; [6]): ≤ 12.5 mg/mL
OCC1(CO)CC2CCC1C2 (stereo not drawn) [2,2-DMNB, 2,2-dimethylolnorbornane]	0 log. Red.	≧3 log. Red.	0 log. Red.	0 log. Red.	0 log. Red.	0 log. Red.	≧3 log. Red.	5 log. Red.	5 log. Red.	5 log. Red.	3 log. Red.	5 log. Red.	5 log. Red.	5 log. Red.	2 log. Red.	≧3 log. Red.	5 log. Red.	5 log. Red.	> 50 mg/mL	≤ 100 mg/mL	MIC (A. niger IMI 149007; [5]): > 25 mg/mL; MIC (A. niger IMI 149007; [6]): ≤ 50 mg/mL; MIC (E. coli NCIMB 8545; [5]): > 3.12 mg/mL; MIC (E. coli NCIMB 8545; [6]): ≤ 6.25 mg/mL; MIC [2, 5]: > 12.5 mg/mL; MIC [2, 6]: ≤ 25 mg/mL; MIC (S. aureus NCIMB 9578; [5]): > 12.5 mg/mL; MIC (S. aureus NCIMB 9578; [6]): ≤ 25 mg/mL; MIC (C. albicans NCPF 3179; [5]): > 50 mg/mL; MIC (C. albicans NCPF 3179; [6]): ≤ 100 mg/mL; MIC (P. vulgaris NCIMB 4175; [5]): > 6.25 mg/mL; MIC (P. vulgaris NCIMB 4175; [6]): ≤ 12.5 mg/mL
OCC1(CO)CCCC1 [DMCP, 1,1-dimethylolcyclopentane]	0 log. Red.	0 log. Red.	0 log. Red.	0 log. Red.	0 log. Red.	0 log. Red.	≧3 log. Red.	5 log. Red.	5 log. Red.	5 log. Red.	1 log. Red.	≧3 log. Red.	5 log. Red.	5 log. Red.	1 log. Red.	3 log. Red.	5 log. Red.	5 log. Red.	> 50 mg/mL	≤ 100 mg/mL	MIC (A. niger IMI 149007; [5]): > 50 mg/mL; MIC (A. niger IMI 149007; [6]): ≤ 100 mg/mL; MIC (E. coli NCIMB 8545; [5]): > 3.12 mg/mL; MIC (E. coli NCIMB 8545; [6]): ≤ 6.25 mg/mL; MIC [2, 5]: > 12.5 mg/mL; MIC [2, 6]: ≤ 25 mg/mL; MIC (S. aureus NCIMB 9578; [5]): > 3.12 mg/mL; MIC (S. aureus NCIMB 9578; [6]): ≤ 6.25 mg/mL; MIC (C. albicans NCPF 3179; [5]): > 25 mg/mL; MIC (C. albicans NCPF 3179; [6]): ≤ 50 mg/mL; MIC (P. vulgaris NCIMB 4175; [5]): > 12.5 mg/mL; MIC (P. vulgaris NCIMB 4175; [6]): ≤ 25 mg/mL
